Source: patent US8399425B2, “Alleviating neuropathic pain with EETs and sEH inhibitors” (The Regents of the University of California, priority 2007, dated 2013)

Assays:
sEH [1] = biological target: T1, sEH (Homo sapiens, UniProt P34913); experiment: inhibition of sEH; type: biochemical
T1 sequence (P34913 1-555): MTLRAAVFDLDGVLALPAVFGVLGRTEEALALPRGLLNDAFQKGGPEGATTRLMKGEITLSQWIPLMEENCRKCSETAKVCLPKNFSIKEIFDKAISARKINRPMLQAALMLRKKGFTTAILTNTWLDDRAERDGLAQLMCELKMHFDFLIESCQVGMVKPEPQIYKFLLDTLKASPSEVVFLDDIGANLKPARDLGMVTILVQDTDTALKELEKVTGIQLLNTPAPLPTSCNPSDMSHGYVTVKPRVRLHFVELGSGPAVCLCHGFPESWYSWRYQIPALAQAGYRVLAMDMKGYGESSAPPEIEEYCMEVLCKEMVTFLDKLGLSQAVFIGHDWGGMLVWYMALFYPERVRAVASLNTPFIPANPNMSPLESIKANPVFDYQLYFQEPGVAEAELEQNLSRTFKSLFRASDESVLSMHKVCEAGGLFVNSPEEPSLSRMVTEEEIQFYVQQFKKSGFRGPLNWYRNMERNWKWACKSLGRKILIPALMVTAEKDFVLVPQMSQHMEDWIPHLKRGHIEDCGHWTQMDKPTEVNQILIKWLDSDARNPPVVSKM
Source text: (§1) Any of a number of standard assays for determining epoxide hydrolase activity can be used to determine inhibition of sEHI. […] Suitable in vitro assays are described in Zeldin et al. J. Biol. Chem. 268:6402-6407 (1993). Suitable in vivo assays are described in Zeldin et al., Arch Biochem Biophys 330:87-96 (1996).
(§2) The enzyme also can be detected based on the binding of specific ligands to the catalytic site which either immobilize the enzyme or label it with a probe such as dansyl, fluoracein, luciferase, green fluorescent protein or other reagent. The enzyme can be assayed by its hydration of EETs, its hydrolysis of an epoxide to give a colored product as described by Dietze et al., 1994, supra, or its hydrolysis of a radioactive surrogate substrate (Borhan et al., 1995, supra). The enzyme also can be detected based on the generation of fluorescent products following the hydrolysis of the epoxide. Numerous methods of epoxide hydrolase detection have been described (see, e.g., Wixtrom, supra).
(§3) The assays are normally carried out with a recombinant enzyme following affinity purification. They can be carried out in crude tissue homogenates, cell culture or even in vivo, as known in the art and described in the references cited above.

metabolism and stability = conditions: in vivo
rat sEH = biological target: T2, rat sEH (Rattus norvegicus, UniProt P80299); experiment: rat sEH inhibition; type: biochemical
T2 sequence (P80299 1-554): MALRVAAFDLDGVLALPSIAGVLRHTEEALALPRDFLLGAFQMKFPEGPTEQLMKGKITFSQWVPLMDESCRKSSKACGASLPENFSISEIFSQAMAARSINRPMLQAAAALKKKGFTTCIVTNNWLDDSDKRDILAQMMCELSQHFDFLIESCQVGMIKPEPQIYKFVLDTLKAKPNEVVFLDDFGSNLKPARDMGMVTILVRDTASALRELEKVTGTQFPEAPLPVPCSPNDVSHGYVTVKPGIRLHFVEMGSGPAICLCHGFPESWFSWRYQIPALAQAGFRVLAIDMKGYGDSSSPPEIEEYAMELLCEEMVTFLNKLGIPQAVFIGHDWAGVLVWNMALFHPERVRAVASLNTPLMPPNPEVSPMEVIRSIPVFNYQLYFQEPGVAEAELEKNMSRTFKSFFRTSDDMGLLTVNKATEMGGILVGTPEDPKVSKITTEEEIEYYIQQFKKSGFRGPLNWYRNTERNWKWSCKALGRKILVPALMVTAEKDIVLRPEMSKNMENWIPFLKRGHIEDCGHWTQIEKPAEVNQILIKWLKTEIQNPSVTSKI

sEH [2] = experiment: inhibition of sEH; type: biochemical; conditions: relative to parent compound
Source text: as §1, §2, §3

[3] = system: streptozocin induced neuropathic pain; experiment: von Frey test (mechanical allodynia) in streptozocin neuropathic rats; type: in vivo, rat; conditions: neuropathic pain model
Procedure: Male Sprague-Dawley rats weighing 250-300 grains were used. Animals were individually housed at UC Davis Animal Resource Facility under standard conditions with free access to food and water, and maintained for at least 1 week before the experiments. Pain was quantified using three tests, the hind paw withdrawal latency test, the mechanical hyperalgesia test and the mechanical allodynia test. All the experiments were performed during the daytime.
Rats were first trained to the experimental chamber in two separate sessions. On the day of the induction of neuropathy, the animals' basal response to all three tests were measured and then streptozocin (50 mg/kg) was administered intravenously. Animals were then followed over time for the development of neuropathic pain. An inhibitor of sEH was administered subcutaneously one week after the onset of pain symptoms. […] Compounds were formulated by dissolving them in ethanol and mixing with trans free oleic oil. At least six animals per group were used. The Von Frey test was conducted by stimulating the plantar surface of the rats' hind paw with a calibrated filament connected to a force transducer. As this filament is applied the amount of force exerted on the paw increases and the animal withdraws its paw when the force reaches its threshold. […] In the Randal-Selitto test a similar principle is used. The animals' hind paw is placed between a flat surface and a pointed tip of a force transducer. The pointed tip exerts force on the dorsal face of the paw. […] The two tests are complementary, but depend on the activity of different groups of nociceptors.
Treatments and behavioral nociceptive tests. […] Following baseline measurements, rats were first treated with 200 μl of vehicle or compound-formulated cream by topical application to one hindpaw, LPS ([…] in 50 μl 0.9% NaCl) was injected into the plantar surface of the treated paw. For subcutaneous administration, compounds were injected immediately after intraplantar LPS. […] A probe fitted with a filament that is connected to a force transducer was applied to the plantar hind paw surface through a wire-mesh platform until eliciting a withdrawal reflex. The duration of heat application or the force (gr) necessary to elicit a withdrawal was designated as TWL and MWT. The steroidogenesis inhibitors were applied 2 hours before sEHI and LPS administration. Diabetes was induced by intravenous injection of 50 mg/kg streptozocin (STZ) in saline following baseline measurements. Diabetic animals were tested at least one week after STZ administration. Three measurements were taken from each animal at each time point and average responses were converted to percent analgesia index based on each animals' baseline response.

[4] = system: streptozocin induced neuropathic pain; experiment: mechanical hyperalgesia test (Randal-Selitto) in streptozocin neuropathic rats; type: in vivo, rat
Procedure: Male Sprague-Dawley rats weighing 250-300 grains were used. Animals were individually housed at UC Davis Animal Resource Facility under standard conditions with free access to food and water, and maintained for at least 1 week before the experiments. Pain was quantified using three tests, the hind paw withdrawal latency test, the mechanical hyperalgesia test and the mechanical allodynia test. All the experiments were performed during the daytime. Rats were first trained to the experimental chamber in two separate sessions. On the day of the induction of neuropathy, the animals' basal response to all three tests were measured and then streptozocin (50 mg/kg) was administered intravenously. Animals were then followed over time for the development of neuropathic pain. An inhibitor of sEH was administered subcutaneously one week after the onset of pain symptoms. […] Pain response was measured at 60, 120, 240 and 480 minutes after the administration of the sEHI. Compounds were formulated by dissolving them in ethanol and mixing with trans free oleic oil. At least six animals per group were used. The Von Frey test was conducted by stimulating the plantar surface of the rats' hind paw with a calibrated filament connected to a force transducer. As this filament is applied the amount of force exerted on the paw increases and the animal withdraws its paw when the force reaches its threshold. […] In the Randal-Selitto test a similar principle is used. The animals' hind paw is placed between a flat surface and a pointed tip of a force transducer. The pointed tip exerts force on the dorsal face of the paw. […] The two tests are complementary, but depend on the activity of different groups of nociceptors.

IC50 (rat sEH)	Structure (SMILES)	activity as inhibitor of sEH (sEH [1])	metabolic stability (metabolism and stability)	fold less active in inhibiting sEH than parent compound (sEH [2])	pain scores of diabetic rats [3]	pain, mechanical hyperalgesia test (FIG. 3) ([4]; 25 mg/kg)	mechanical allodynia induced by diabetic neuropathy (FIG. 3 legend) ([4]; compound 1010 at equivalent dose)
	CCCCCCCCCCCCNC(=O)NC12CC3CC(CC(C3)C1)C2 [ADU, N-Adamantyl-N-dodecyl urea]	particularly high activity on sEH	metabolically stable				
1160 nM	CCOCCOCCOCCCCCNC(=O)NC12CC3CC(CC(O)(C3)C1)C2 [compound 1010, reference compound]			250 fold	not	showed no effectiveness	shows no effectiveness in reducing nociception
